Data from US10611778B2, “Fused bicyclic inhibitors of menin-MLL interaction” (Janssen Pharmaceutica NV, priority 2016, dated 2020).

Tests used:
[1] = molecular target: T1, Menin/MLL (menin, FITC-MBM1 peptide) (Homo sapiens, UniProt O00255, T541A); test: Menin/MLL fluorescence polarization (FP) assay; format: binding; conditions: averaged values over all measurements; read-out: Menin FP assay (IC50)
T1 construct: 6xHis (C)
T1 sequence (O00255 with tags, fused parts or gaps T541A): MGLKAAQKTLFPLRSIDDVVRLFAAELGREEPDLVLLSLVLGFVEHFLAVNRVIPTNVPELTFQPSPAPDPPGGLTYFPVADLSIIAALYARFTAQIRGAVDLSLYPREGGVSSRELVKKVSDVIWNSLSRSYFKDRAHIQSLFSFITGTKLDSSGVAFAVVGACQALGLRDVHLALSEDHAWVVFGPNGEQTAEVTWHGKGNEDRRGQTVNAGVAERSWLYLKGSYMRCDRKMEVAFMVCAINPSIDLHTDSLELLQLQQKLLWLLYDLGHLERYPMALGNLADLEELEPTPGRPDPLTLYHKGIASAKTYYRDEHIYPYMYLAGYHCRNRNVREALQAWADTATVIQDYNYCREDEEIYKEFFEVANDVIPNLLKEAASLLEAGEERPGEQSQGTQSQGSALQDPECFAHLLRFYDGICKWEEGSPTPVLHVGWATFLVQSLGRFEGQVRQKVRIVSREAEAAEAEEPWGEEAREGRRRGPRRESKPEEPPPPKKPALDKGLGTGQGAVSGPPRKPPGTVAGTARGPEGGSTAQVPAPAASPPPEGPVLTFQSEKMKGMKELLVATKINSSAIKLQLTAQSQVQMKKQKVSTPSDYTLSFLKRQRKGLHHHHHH
Method: Pharmacological Part 1) Menin/MLL Fluorescence Polarization Assay
To a non-surface binding, black 384-well microtiter plate was added 50 nL 160× test compound in DMSO and 4 μL 2× menin in assay buffer (40 mM Tris-HCl, pH 7.5, 50 mM NaCl, 1 mM DTT and 0.001% Tween 20). After incubation of test compound and menin for 10 min at ambient temperature, 4 μL 2×FITC-MBM1 peptide (FITC-β-alanine-SARWRFPARPGT-NH2) in assay buffer was added, the microtiter plate centrifuged at 1000 rpm for 1 min and the assay mixtures incubated for 15 min at ambient temperature. The relative amount of menin: FITC-MBM1 complex present in an assay mixture is determined by measuring the fluorescence polarization (FP) of the FITC label with a BMG Pherastar plate reader (ex. 485 nm/em. 520 nm) at ambient temperature. The final concentrations of reagents in the binding assay are 100 nM menin, 5 nM FITC-MBM1 peptide and 0.625% DMSO in assay buffer. Dose-response titrations of test compounds are conducted using an 11 point, three-fold serial dilution scheme, starting at 31 μM.
Compound potencies were determined by first calculating % inhibition at each compound concentration according to equation 1: % inhibition=((HC−LC)−(FP^compound−LC))/(HC−LC))*100 (Eqn 1)
(§1) Where LC and HC are the FP values of the assay in the presence or absence of a saturating concentration of a compound that competes with FITC-MBM1 for binding to menin, and FP^compound is the measured FP value in the presence of the test compound. HC and LC FP values represent an average of at least 16 replicates per plate.
(§2) Where Bottom and Top are the lower and upper asymptotes of the dose-response curve, respectively, IC50 is the concentration of compound that yields 50% inhibition of signal and h is the Hill coefficient.

[2] = molecular target: T2, Menin/MLL (terbium chelate-labeled menin, FITC-MBM1 peptide) (Homo sapiens, UniProt O00255, T541A); test: Menin/MLL homogenous time-resolved fluorescence (HTRF) assay; format: binding; conditions: averaged values over all measurements; read-out: Menin HTRF assay (IC50)
T2 construct: Menin (a.a. 1-610-6×his tag) was labeled with terbium cryptate as follows
T2 sequence (O00255 with tags, fused parts or gaps T541A): T1 sequence (O00255 with tags, fused parts or gaps T541A)
Method: 3) Menin/MLL Homogenous Time-Resolved Fluorescence (HTRF) Assay
To an untreated, white 384-well microtiter plate was added 40 nL 200× test compound in DMSO and 4 μL 2× terbium chelate-labeled menin (vide infra for preparation) in assay buffer (40 mM Tris-HCl, pH 7.5, 50 mM NaCl, 1 mM DTT and 0.05% Pluronic F-127). After incubation of test compound and terbium chelate-labeled menin for 5 min at ambient temperature, 4 μL 2×FITC-MBM1 peptide (FITC-β-alanine-SARWRFPARPGT-NH2) in assay buffer was added, the microtiter plate centrifuged at 1000 rpm for 1 min and the assay mixtures incubated for 15 min at ambient temperature. The relative amount of menin⋅FITC-MBM1 complex present in an assay mixture is determined by measuring the homogenous time-resolved fluorescence (HTRF) of the terbium/FITC donor/acceptor fluorophore pair using a BMG Pherastar plate reader (ex. 337 nm/terbium em. 490 nm/FITC em. 520 nm) at ambient temperature. The degree of fluorescence resonance energy transfer (the HTRF value) is expressed as the ratio of the fluorescence emission intensities of the FITC and terbium fluorophores (F^em 520 nm/F^em 490 nm). The final concentrations of reagents in the binding assay are 100 pM terbium chelate-labeled menin, 75 nM FITC-MBM1 peptide and 0.5% DMSO in assay buffer. Dose-response titrations of test compounds are conducted using an 11 point, three-fold serial dilution scheme, starting at 31 μM.
Compound potencies were determined by first calculating % inhibition at each compound concentration according to equation 1: % inhibition=((HC−LC)−(HTRF^compound−LC))/(HC−LC))*100 (Eqn 1)
as §1, with “HTRF” for “FP”, “HTRF^compound” for “FP^compound”
as §2
Preparation of Terbium cryptate labeling of Menin: Menin (a.a. 1-610-6×his tag) was labeled with terbium cryptate as follows. 2 mg of Menin was buffer exchanged into 1× phosphate buffered saline. 16 uM Menin was incubated with 4-fold molar excess NHS-terbium cryptate (Cisbio Bioassays, Bedford, Mass.) for 2 hours at room temperature. The labeled protein was purified away from free label by running the reaction over a Superdex 200 Increase 10/300 GL column at 0.75 ml/min. Peak fractions were collected, aliquoted and frozen at −80° C.

MV-4-11 = test: Proliferation assay (spheroid assay) MV-4-11; format: cell-based, human; conditions: Homo sapiens, MV4-11, MV-4-11; averaged values over all measurements; read-out: Spheroid assay MV-4-11 (IC50)
Method: (§3) The anti-proliferative effect of menin/MLL protein/protein interaction inhibitor test compounds was assessed in human leukemia cell lines. The cell lines MV-4-11 and MOLM14 harbor MLL translocations and express the MLL fusion proteins MLL-AF4 and MLL-AF9, respectively, as well as the wildtype protein from the second allele. […] K562 and KG1 were used as a control cell lines containing two MLL wildtype alleles in order to exclude compounds that display general cytotoxic effects.
(§4) MV-4-11 and MOLM14 were cultured in RPMI-1640 (Sigma Aldrich) supplemented with 10% fetal bovine serum (HyClone), 2 mM L-glutamine (Sigma Aldrich) and 50 μg/ml gentamycin (Gibco). K562 were propagated in RPMI-1640 (Sigma Aldrich) supplemented with 20% fetal bovine serum (HyClone), 2 mM L-glutamine (Sigma Aldrich) and 50 μg/ml gentamycin (Gibco). KG1 were cultured in Iscove's MDM (Gibco) supplemented with 20% fetal bovine serum (HyClone), 2 mM L-glutamine (Sigma Aldrich) and 50 μg/ml gentamycin (Gibco).
(§5) In order to assess the anti-proliferative effects, 1,500 MV-4-11, 300 MOLM14, 750 K562 or 1,300 KG1 cells were seeded in 200 μl media per well in 96-well round bottom, ultra-low attachment plates (Costar, catalogue number 7007). Cell seeding numbers were chosen based on growth curves to ensure linear growth throughout the experiment. Test compounds were added at different concentrations and the DMSO content was normalized to 0.3%. Cells were incubated for 8 d at 37° C. and 5% CO2. Spheroid like growth was monitored in real-time by live-cell imaging (IncuCyteZOOM, Essenbio, 4× objective) acquiring one image every four hours for 8 d. Confluence (%) as a measure of spheroid size was determined using an integrated analysis tool.
(§6) In order to determine the cumulative effect of the test compounds over time, the area under the curve (AUC) in a plot of confluence against time was calculated. Confluence at the beginning of the experiment (t=0) was used as baseline for the AUC calculation.
(§7) Absolute IC50 values were calculated according to the following procedure: % Control=(AUC sample/AUC control)*100
(§8) AUC control=mean AUC of control values (cells without compound/DMSO as vehicle control)
(§9) A non-linear curve fit was applied using the least squares (ordinary) fit method to the plot of % control versus compound concentration. Based on this, the absolute IC50 value (half maximal inhibitory concentration of the test compound causing an anti-proliferative effect of 50% relative to the vehicle control) was calculated.

MOLM14 = test: Proliferation assay (spheroid assay) MOLM14; format: cell-based, human; conditions: Homo sapiens, MOLM-14, MOLM14; averaged values over all measurements; read-out: Spheroid assay MOLM14 (IC50)
Method: as §3, §4, §5, §6, §7, §8, §9

SMILES	IC50 [1]	IC50 [2]	IC50 (MV-4-11)	IC50 (MOLM14)
FC(F)(F)Cc1cc2c(N3CC[C@@H]4[C@@H](CCN4Cc4ccccc4)C3)ncnc2s1 (single isomer, unassigned) [Compound 3]	0.089 µM	0.061 µM	2 µM	3.8 µM
Cn1cc(CN2CC[C@@H]3CN(c4ncnc5sc(CC(F)(F)F)cc45)CC[C@@H]32)cn1 (single isomer, unassigned) [Compound 13]	0.52 µM		13.7 µM	> 15 µM
Cn1ccc(CN2CC[C@@H]3CN(c4ncnc5sc(CC(F)(F)F)cc45)CC[C@@H]32)n1 (single isomer, unassigned) [Compound 14]	1.12 µM			
O=S(=O)(c1ccccc1)N1CC[C@H]2CN(c3ncnc4sc(CC(F)(F)F)cc34)CC[C@H]21 (single isomer, unassigned) [Compound 17]	1.85 µM			
CC(C)CN1CC[C@@H]2CN(c3ncnc4sc(CC(F)(F)F)cc34)C[C@@H]21 (single isomer, unassigned) [Compound 28A]	1.17 µM	1.73 µM		
CC(C)CN1CC[C@H]2CN(c3ncnc4sc(CC(F)(F)F)cc34)C[C@H]21 (single isomer, unassigned) [Compound 28B]	1.38 µM	2.49 µM		
Nc1ccc(CN2CC[C@@H]3CN(c4ncnc5sc(CC(F)(F)F)cc45)C[C@@H]3C2)cn1 (single isomer, unassigned) [Compound 105]		0.011 µM	0.22 µM	
CNc1ccc(CN2CC[C@@H]3CN(c4ncnc5sc(CC(F)(F)F)cc45)C[C@@H]3C2)cn1 (single isomer, unassigned) [Compound 106]		0.01 µM	0.19 µM	
CNc1cc(CN2CC[C@@H]3CN(c4ncnc5sc(CC(F)(F)F)cc45)C[C@@H]3C2)ccn1 (single isomer, unassigned) [Compound 107]		0.023 µM	0.34 µM	
O=C(c1ccncc1)N1CCC(CN2CC[C@@H]3CN(c4ncnc5sc(CC(F)(F)F)cc45)C[C@@H]3C2)CC1 (single isomer, unassigned) [Compound 108]		0.023 µM	0.87 µM	
[CH3][Ge]([CH3])([CH3])[CH2]N1CCC2CN(c3ncnc4sc(CC(F)(F)F)cc34)CCC21 (centres unmarked) [Compound 15]	0.13 µM	0.12 µM		
O=S(=O)(c1ccccc1)N1CC[C@@H]2CN(c3ncnc4sc(CC(F)(F)F)cc34)CC[C@@H]21 [Compound 16]	1.53 µM			
Cn1ccnc1CN1CCC2CN(c3ncnc4sc(CC(F)(F)F)cc34)CCC21 (centres unmarked) [Compound 19]	1.77 µM	4.57 µM		
Cn1cc(CN2CCCC3C2CCN3c2ncnc3sc(CC(F)(F)F)cc23)cn1 (centres unmarked) [Compound 21]	1.77 µM	2.12 µM		
FC(F)(F)Cc1cc2c(N3CCC4C(CCN4Cc4ncc[nH]4)C3)ncnc2s1 (centres unmarked) [Compound 22]	2.41 µM			
NCCn1cc(CN2CCC3CN(c4ncnc5sc(CC(F)(F)F)cc45)CCC32)cn1 (centres unmarked) [Compound 26]		0.054 µM	4.7 µM	5.6 µM
Cn1cc(CN2CC[C@@H]3CN(c4ncnc5sc(CC(F)(F)F)cc45)C[C@@H]32)cn1 [Compound 27A]	4.54 µM	10 µM		
Cn1cc(CN2CC[C@H]3CN(c4ncnc5sc(CC(F)(F)F)cc45)C[C@H]32)cn1 [Compound 27B]	3.65 µM	8.99 µM		
FC(F)(F)Cc1cc2c(N3C[C@@H]4CN(Cc5ccccc5)[C@@H]4C3)ncnc2s1 [Compound 32]	1.56 µM	2.78 µM		
FC(F)(F)Cc1cc2c(N3C[C@H]4CN(Cc5ccccc5)[C@H]4C3)ncnc2s1 [Compound 33]	1.19 µM	2.1 µM		
Cn1cc(CN2CC3CCN(c4ncnc5sc(CC(F)(F)F)cc45)CC3C2)cn1 (centres unmarked) [Compound 34]	0.78 µM	1.98 µM		
FC(F)(F)Cc1cc2c(N3CCC4C(CCN4Cc4cc[nH]n4)C3)ncnc2s1 (centres unmarked) [Compound 84]	1.02 µM	0.906 µM		
